What follows are molecules tested on endogenous cellular STAT1 (phosphorylated at Tyr701) in NCI-H1373 cells (assay: Phospho-STAT1 (Tyr701) LANCE Ultra TR-FRET Detection Assay). Conditions: Homo sapiens, NCI-H1373, 48 h, phospho-STAT1 (Tyr701) induction, read-out: NH1373 pSTAT1 EC50.
Type: cell-based

SMILES	EC50 [nM]
CC[C@@H](CCCn1cnc2cc(-c3ncc(OC(F)F)c(N)n3)c(F)cc2c1=O)Nc1cn[nH]c(=O)c1C(F)(F)F [Example 364, (S)-7-(4-amino-5-(difluoromethoxy)pyrimidin-2-yl)-6-fluoro-3-(4-((6-oxo-5-(trifluoromethyl)-1,6-dihydropyridazin-4-yl)amino)hexyl)quinazolin-4(3H)-one]	96.4
C[C@@H](CCCn1ccc2cc(-c3ncnc(N)n3)c(F)cc2c1=O)Nc1cn[nH]c(=O)c1C(F)(F)F [Example 365, (S)-6-(4-amino-1,3,5-triazin-2-yl)-7-fluoro-2-(4-((6-oxo-5-(trifluoromethyl)-1,6-dihydropyridazin-4-yl)amino)pentyl)isoquinolin-1(2H)-one]	55.8
Cc1nc(N)nc(-c2cc3ccn(CCC[C@H](C)Nc4cn[nH]c(=O)c4C(F)(F)F)c(=O)c3cc2F)n1 [Example 366, (S)-6-(4-amino-6-methyl-1,3,5-triazin-2-yl)-7-fluoro-2-(4-((6-oxo-5-(trifluoromethyl)-1,6-dihydropyridazin-4-yl)amino)pentyl)isoquinolin-1(2H)-one]	92.5
C[C@@H](CCCn1cnc2cc(-c3ncc(OC(F)F)c(N)n3)c(F)cc2c1=O)Nc1cn[nH]c(=O)c1C(F)(F)F [Example 367, (S)-7-(4-amino-5-(difluoromethoxy)pyrimidin-2-yl)-6-fluoro-3-(4-((6-oxo-5-(trifluoromethyl)-1,6-dihydropyridazin-4-yl)amino)pentyl)quinazolin-4(3H)-one]	51.1
O=c1[nH]ncc(N[C@H](CCCn2cnc3cc(-c4cnc(OC(F)F)cn4)c(F)cc3c2=O)COC(F)F)c1C(F)(F)F [Example 373, (R)-3-(5-(difluoromethoxy)-4-((6-oxo-5-(trifluoromethyl)-1,6-dihydropyridazin-4-yl)amino)pentyl)-7-(5-(difluoromethoxy)pyrazin-2-yl)-6-fluoroquinazolin-4(3H)-one]	16.6
Nc1nc(-c2cc3ncn(CCC[C@H](COC(F)F)Nc4cn[nH]c(=O)c4C(F)(F)F)c(=O)c3cc2F)ncc1OC(F)F [Example 374, (R)-7-(4-amino-5-(difluoromethoxy)pyrimidin-2-yl)-3-(5-(difluoromethoxy)-4-((6-oxo-5-(trifluoromethyl)-1,6-dihydropyridazin-4-yl)amino)pentyl)-6-fluoroquinazolin-4(3H)-one]	44.8
Nc1nc(-c2cc3ncn(CCC[C@H](COC(F)F)Nc4cn[nH]c(=O)c4C(F)(F)F)c(=O)c3cc2F)ncc1C(F)(F)F [Example 385, (R)-7-(4-amino-5-(trifluoromethyl)pyrimidin-2-yl)-3-(5-(difluoromethoxy)-4-((6-oxo-5-(trifluoromethyl)-1,6-dihydropyridazin-4-yl)amino)pentyl)-6-fluoroquinazolin-4(3H)-one]	13.3
O=c1[nH]ncc(N[C@H](CCCn2ccc3nc(-c4ccc(C(F)(F)F)cn4)ccc3c2=O)COC(F)F)c1C(F)(F)F [Example 386, (R)-6-(5-(difluoromethoxy)-4-((6-oxo-5-(trifluoromethyl)-1,6-dihydropyridazin-4-yl)amino)pentyl)-2-(5-(trifluoromethyl)pyridin-2-yl)-1,6-naphthyridin-5(6H)-one]	2.96
Nc1nc(-c2cc3ncn(CCC[C@H](COC(F)F)Nc4cn[nH]c(=O)c4C(F)(F)F)c(=O)c3cc2F)ccc1C(F)(F)F [Example 390, (R)-7-(6-amino-5-(trifluoromethyl)pyridin-2-yl)-3-(5-(difluoromethoxy)-4-((6-oxo-5-(trifluoromethyl)-1,6-dihydropyridazin-4-yl)amino)pentyl)-6-fluoroquinazolin-4(3H)-one]	11.7
COc1cnc(-c2cc3ncn(CCC[C@H](COC(F)F)Nc4cn[nH]c(=O)c4C(F)(F)F)c(=O)c3cc2F)nc1N [Example 393, (R)-7-(4-amino-5-methoxypyrimidin-2-yl)-3-(5-(difluoromethoxy)-4-((6-oxo-5-(trifluoromethyl)-1,6-dihydropyridazin-4-yl)amino)pentyl)-6-fluoroquinazolin-4(3H)-one]	22.7

Further lines, results first:

EC50 [nM]	SMILES
7.35	Nc1nc(-c2cc3ccn(CCC[C@H](COC(F)F)Nc4cn[nH]c(=O)c4C(F)(F)F)c(=O)c3cc2F)ncc1OC(F)F [Example 369, (R)-6-(4-amino-5-(difluoromethoxy)pyrimidin-2-yl)-2-(5-(difluoromethoxy)-4-((6-oxo-5-(trifluoromethyl)-1,6-dihydropyridazin-4-yl)amino)pentyl)-7-fluoroisoquinolin-1(2H)-one]
8.33	COc1cnc(-c2cc3ccn(CCC[C@H](COC(F)F)Nc4cn[nH]c(=O)c4C(F)(F)F)c(=O)c3cc2F)nc1N [Example 370, (R)-6-(4-amino-5-methoxypyrimidin-2-yl)-2-(5-(difluoromethoxy)-4-((6-oxo-5-(trifluoromethyl)-1,6-dihydropyridazin-4-yl)amino)pentyl)-7-fluoroisoquinolin-1(2H)-one]
6.78	O=c1[nH]ncc(N[C@H](CCCn2ccc3cc(-c4cnc(OC(F)F)cn4)c(F)cc3c2=O)COC(F)F)c1C(F)(F)F [Example 371, (R)-2-(5-(difluoromethoxy)-4-((6-oxo-5-(trifluoromethyl)-1,6-dihydropyridazin-4-yl)amino)pentyl)-6-(5-(difluoromethoxy)pyrazin-2-yl)-7-fluoroisoquinolin-1(2H)-one]
7.13	O=c1[nH]ncc(N[C@H](CCCn2cnc3cc(-c4cnc(C(F)F)cn4)c(F)cc3c2=O)COC(F)F)c1C(F)(F)F [Example 372, (R)-3-(5-(difluoromethoxy)-4-((6-oxo-5-(trifluoromethyl)-1,6-dihydropyridazin-4-yl)amino)pentyl)-7-(5-(difluoromethyl)pyrazin-2-yl)-6-fluoroquinazolin-4(3H)-one]
3.84	O=c1[nH]ncc(N[C@H](CCCn2ccc3cc(-c4ncc(C(F)(F)F)cn4)c(F)c(F)c3c2=O)COC(F)F)c1C(F)(F)F [Example 375, (R)-2-(5-(difluoromethoxy)-4-((6-oxo-5-(trifluoromethyl)-1,6-dihydropyridazin-4-yl)amino)pentyl)-7,8-difluoro-6-(5-(trifluoromethyl)pyrimidin-2-yl)isoquinolin-1(2H)-one]
2.17	O=c1[nH]ncc(N[C@H](CCCn2cnc3cc(-c4ncc(C(F)(F)F)cn4)c(F)cc3c2=O)COC(F)F)c1C(F)(F)F [Example 382, (R)-3-(5-(difluoromethoxy)-4-((6-oxo-5-(trifluoromethyl)-1,6-dihydropyridazin-4-yl)amino)pentyl)-6-fluoro-7-(5-(trifluoromethyl)pyrimidin-2-yl)quinazolin-4(3H)-one]
18.5	Nc1nc(-c2cc3ncn(CCC[C@H](COC(F)F)Nc4cn[nH]c(=O)c4C(F)(F)F)c(=O)c3cc2F)ncc1C(F)F [Example 383, (R)-7-(4-amino-5-(difluoromethyl)pyrimidin-2-yl)-3-(5-(difluoromethoxy)-4-((6-oxo-5-(trifluoromethyl)-1,6-dihydropyridazin-4-yl)amino)pentyl)-6-fluoroquinazolin-4(3H)-one]
2.41	O=c1[nH]ncc(N[C@H](CCCn2cnc3cc(-c4ncc(C(F)F)cn4)c(F)cc3c2=O)COC(F)F)c1C(F)(F)F [Example 384, (R)-3-(5-(difluoromethoxy)-4-((6-oxo-5-(trifluoromethyl)-1,6-dihydropyridazin-4-yl)amino)pentyl)-7-(5-(difluoromethyl)pyrimidin-2-yl)-6-fluoroquinazolin-4(3H)-one]
10.4	Nc1nc(-c2cc3ccn(CCC[C@H](COC(F)F)Nc4cn[nH]c(=O)c4C(F)(F)F)c(=O)c3c(F)c2F)ncc1C(F)F [Example 387, (R)-6-(4-amino-5-(difluoromethyl)pyrimidin-2-yl)-2-(5-(difluoromethoxy)-4-((6-oxo-5-(trifluoromethyl)-1,6-dihydropyridazin-4-yl)amino)pentyl)-7,8-difluoroisoquinolin-1(2H)-one]
2.74	O=c1[nH]ncc(N[C@H](CCCn2ccc3cc(-c4ncc(C(F)F)cn4)c(F)c(F)c3c2=O)COC(F)F)c1C(F)(F)F [Example 388, (R)-2-(5-(difluoromethoxy)-4-((6-oxo-5-(trifluoromethyl)-1,6-dihydropyridazin-4-yl)amino)pentyl)-6-(5-(difluoromethyl)pyrimidin-2-yl)-7,8-difluoroisoquinolin-1(2H)-one]
5.14	Nc1nc(-c2cc3ccn(CCC[C@H](COC(F)F)Nc4cn[nH]c(=O)c4C(F)(F)F)c(=O)c3c(F)c2F)ncc1C(F)(F)F [Example 389, (R)-6-(4-amino-5-(trifluoromethyl)pyrimidin-2-yl)-2-(5-(difluoromethoxy)-4-((6-oxo-5-(trifluoromethyl)-1,6-dihydropyridazin-4-yl)amino)pentyl)-7,8-difluoroisoquinolin-1(2H)-one]
6.3	Nc1nc(-c2cc3ccn(CCC[C@H](COC(F)F)Nc4cn[nH]c(=O)c4C(F)(F)F)c(=O)c3c(F)c2F)ncc1Cl [Example 391, (R)-6-(4-amino-5-chloropyrimidin-2-yl)-2-(5-(difluoromethoxy)-4-((6-oxo-5-(trifluoromethyl)-1,6-dihydropyridazin-4-yl)amino)pentyl)-7,8-difluoroisoquinolin-1(2H)-one]
1.5	O=c1[nH]ncc(N[C@H](CCCn2ccc3cc(-c4ncc(Cl)cn4)c(F)c(F)c3c2=O)COC(F)F)c1C(F)(F)F [Example 392, (R)-6-(5-chloropyrimidin-2-yl)-2-(5-(difluoromethoxy)-4-((6-oxo-5-(trifluoromethyl)-1,6-dihydropyridazin-4-yl)amino)pentyl)-7,8-difluoroisoquinolin-1(2H)-one]
1.22	O=c1[nH]ncc(N[C@H](CCCn2cnc3cc(-c4ncc(Cl)cn4)c(F)cc3c2=O)COC(F)F)c1C(F)(F)F [Example 394, (R)-7-(5-chloropyrimidin-2-yl)-3-(5-(difluoromethoxy)-4-((6-oxo-5-(trifluoromethyl)-1,6-dihydropyridazin-4-yl)amino)pentyl)-6-fluoroquinazolin-4(3H)-one]

Source: patent publication US12459922B2 (Gilead Sciences, Inc., priority 2022, dated 2025)
